Tests used:
Type in all cases: biochemical
μ-opioid receptor [1] = molecular target: T1, μ-opioid receptor (Homo sapiens, UniProt P35372); test: μ-opioid receptor [35S]GTPγS functional assay, HEK-293 or CHO cells; conditions: for Emax: HEK-293 or CHO cells, relative to DAMGO
Procedure: (§1) [^35S]GTPγS functional assays were conducted using freshly thawed μ-receptor membranes prepared in-house from a cell line expressing recombinant opioid receptor in a HEK-293, CHO or U-2 OS cell background, or purchased from a commercial source (Perkin Elmer, Shelton, Conn.; or DiscovRx, Fremont, Calif.). Assay reactions were prepared by sequentially adding the following reagents to binding buffer (100 mM NaCl, 10 mM MgCl2, 20 mM HEPES, pH 7.4) on ice (final concentrations indicated): membrane protein (0.026 mg/mL), saponin ([…]), GDP ([…]) and [^35S]GTPγS (0.20 nM; Perkin Elmer, Shelton, Conn.). The prepared membrane solution (190 l/well) was transferred to 96-shallow well polypropylene plates containing 10 μl of 20× concentrated stock solutions of the agonist [D-Ala^2, N-methyl-Phe^4 Gly-ol^5]-enkephalin (DAMGO) prepared in dimethyl sulfoxide (DMSO). Plates were incubated for 30 min at about 25° C. with shaking. Reactions were terminated by rapid filtration onto 96-well Unifilter GF/B filter plates (Perkin Elmer, Shelton, Conn.) using a 96-well tissue harvester (Perkin Elmer, Shelton, Conn.) followed by three filtration washes with 200 μl of ice-cold wash buffer (10 mM NaH2PO4, 10 mM Na2HPO4, pH 7.4). Filter plates were subsequently dried at 50° C. for 2-3 hr. BetaScint scintillation cocktail (Perkin Elmer, Shelton, Conn.) was added (50 μl/well) and plates were counted using a Packard Top-Count for 1 min/well. Data were analyzed using the sigmoidal dose-response curve fitting functions in GraphPad PRISM v. 3.0, or an in-house function for non-linear, sigmoidal dose-response curve-fitting.
(§2) μ GTP EC50 is the concentration of a compound providing 50% of the maximal response for the compound at a μ-opioid receptor.
(§3) μ GTP Emax (%) is the maximal effect elicited by a compound relative to the effect elicited by DAMGO, a standard agonist. Generally, the μ GTP Emax (%) value measures the efficacy of a compound to treat or prevent pain or other Conditions.
In TABLE 2, activity response of certain Compounds of the Invention at the μ- and κ-opioid receptors using HEK-293 or CHO cells was determined as described above for functional assays.

μ-opioid receptor [2] = molecular target: T1, μ-opioid receptor; test: μ-opioid receptor [35S]GTPγS functional assay, U-2 OS cells; parameters: host or cells: U-2 OS cells; conditions: for Emax: U2-OS cells, relative to DAMGO
Procedure: as §1, §2, §3
(§4) In TABLE 2A, activity response of certain Compounds of the Invention at the μ- and κ-opioid receptors using U-2 OS cells was determined as described above for functional assays.

human κ opioid receptor = human κ opioid receptor (Homo sapiens, UniProt P41145); test: κ-opioid receptor [35S]GTPγS functional assay, U-2 OS cells; parameters: expressed in transfected cells; host or cells: U-2 OS cells (in-house membranes); conditions: for Emax: U2-OS cells, relative to U69,593
Procedure: Membranes from recombinant HEK-293 cells, CHO or U-2 OS cells expressing the recombinant human K opioid receptor (K) were prepared by lysing cells in ice cold hypotonic buffer (2.5 mM MgCl2, 50 mM HEPES, pH 7.4) (10 mL/10 cm dish) followed by homogenization with a tissue grinder/Teflon pestle. Functional [^35S]GTPγS binding assays were conducted as follows. K opioid receptor membrane solution was prepared by sequentially adding final concentrations of 0.026 μg/μl κ membrane protein (in-house), 10 μg/mL saponin, 3 μM GDP and 0.20 nM [^35S]GTPγS to binding buffer (100 mM NaCl, 10 mM MgCl2, 20 mM HEPES, pH 7.4) on ice. The prepared membrane solution (190 μl/well) was transferred to 96-shallow well polypropylene plates containing 10 μl of 20× concentrated stock solutions of agonist prepared in DMSO. Plates were incubated for 30 min at a temperature of about 25° C. with shaking. Reactions were terminated by rapid filtration onto 96-well Unifilter GF/B filter plates (Perkin Elmer, Shelton, Conn.) using a 96-well tissue harvester (Packard) and followed by three filtration washes with 200 μl ice-cold binding buffer (10 mM NaH2PO4, 10 mM Na2HPO4, pH 7.4). Filter plates were subsequently dried at 50° C. for 2-3 hours. Fifty μl/well scintillation cocktail (Perkin Elmer, Shelton, Conn.) was added and plates were counted in a Packard Top-Count for 1 min/well.
κ GTP EC50 is the concentration of a compound providing 50% of the maximal response for the compound at a κ receptor.
κ GTP Emax (%) is the maximal effect elicited by a compound relative to the effect elicited by U69,593.
as §4

T1 sequence (P35372 whole entry, species assumed): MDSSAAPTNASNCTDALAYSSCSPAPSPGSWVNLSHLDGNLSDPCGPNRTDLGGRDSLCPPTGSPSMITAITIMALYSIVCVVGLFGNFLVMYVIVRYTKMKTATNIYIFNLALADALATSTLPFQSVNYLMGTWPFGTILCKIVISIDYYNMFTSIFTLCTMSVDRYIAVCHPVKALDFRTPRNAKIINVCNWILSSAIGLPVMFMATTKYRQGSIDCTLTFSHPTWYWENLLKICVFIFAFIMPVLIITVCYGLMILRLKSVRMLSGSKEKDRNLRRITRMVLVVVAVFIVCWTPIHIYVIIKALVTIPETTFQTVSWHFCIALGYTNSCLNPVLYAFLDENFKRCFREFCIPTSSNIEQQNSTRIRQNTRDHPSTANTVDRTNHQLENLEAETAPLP
Sequence of human κ opioid receptor (P41145 whole entry): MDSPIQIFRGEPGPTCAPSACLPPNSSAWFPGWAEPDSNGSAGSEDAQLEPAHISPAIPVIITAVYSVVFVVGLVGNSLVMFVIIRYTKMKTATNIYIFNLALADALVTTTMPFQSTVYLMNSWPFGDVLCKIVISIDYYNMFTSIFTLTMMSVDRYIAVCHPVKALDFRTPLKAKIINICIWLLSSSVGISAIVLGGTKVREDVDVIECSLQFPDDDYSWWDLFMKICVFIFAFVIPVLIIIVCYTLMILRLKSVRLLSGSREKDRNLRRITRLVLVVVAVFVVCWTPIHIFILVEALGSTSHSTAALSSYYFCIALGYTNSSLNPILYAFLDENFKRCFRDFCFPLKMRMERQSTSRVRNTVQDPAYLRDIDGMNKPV

| Structure (SMILES) | EC50 (μ-opioid receptor [1]) [nM] | Emax (μ-opioid receptor [1]) [%] | EC50 (μ-opioid receptor [2]) [nM] | Emax (μ-opioid receptor [2]) [%] | EC50 (human κ opioid receptor) [nM] | Emax (human κ opioid receptor) [%] |
| --- | --- | --- | --- | --- | --- | --- |
| CC(C)CN[C@H]1CC[C@]23CCN(CC4CC4)[C@H](Cc4ccc(O)cc42)[C@]3(O)C1 [Compound 42, (4bS,7S,8aS,9R)-11-(cyclopropylmethyl)-7-(isobutylamino)-5,6,7,8,9,10-hexahydro-8aH-9,4b-(epiminoethano)phenanthrene-3,8a-diol] | 20.2 ± 7.83 | 16.6 ± 1.63 | 2.81 ± 0.16 | 67.3 ± 2.85 | 0.25 ± 0.029 | 110 |
| COc1ccc2c(c1)[C@@]13CC[C@H](NC(=O)C(C)C)C[C@@]1(O)[C@@H](C2)N(CC1CC1)CC3 [Compound 45, N-((4bS,7S,8aS,9R)-11-(cyclopropylmethyl)-8a-hydroxy-3-methoxy-6,7,8,8a,9,10-hexahydro-5H-9,4b-(epiminoethano)phenanthren-7-yl)isobutyramide] | 308 ± 122 | 15.3 ± 1.86 | 72 ± 15.9 | 71 ± 5.69 | 10.6 ± 2.1 | 106 ± 1 |
| CC(C)C(=O)N[C@H]1CC[C@]23CCN(CC4CC4)[C@H](Cc4ccc(O)cc42)[C@]3(O)C1 [Compound 46, N-((4bS,7S,8aS,9R)-11-(cyclopropylmethyl)-3,8a-dihydroxy-6,7,8,8a,9,10-hexahydro-5H-9,4b-(epiminoethano)phenanthren-7-yl)isobutyramide] | > 20000 | 7.67 ± 3.48 | 0.38 ± 0.11 | 54 ± 6.03 | 0.1 ± 0.021 | 102 ± 5.24 |
| CC(C)CCCC(=O)N[C@H]1C[C@@]2(O)[C@H]3Cc4ccc(O)cc4[C@@]2(CCN3CC2CC2)C[C@H]1O [Compound 62, N-((4bR,6R,7S,8aS,9R)-11-(cyclopropylmethyl)-3,6,8a-trihydroxy-6,7,8,8a,9,10-hexahydro-5H-9,4b-(epiminoethano)phenanthren-7-yl)-5-methylhexanamide] | 54.7 ± 4.52 | 23.3 ± 0.67 | 43.3 ± 5.6 | 60.3 ± 0.88 | 17.4 ± 1.46 | 90.2 ± 1.65 |
| O=C1C=C2[C@H]3Cc4ccc(O)cc4[C@]2(CC1)CCN3CC1CC1 [Compound 68, (4bS,9R)-11-(cyclopropylmethyl)-3-hydroxy-5,6,9,10-tetrahydro-7H-9,4b-(epiminoethano)phenanthren-7-one] | > 20000 | 6 ± 3 | 4.54 ± 1.28 | 31.3 ± 1.33 | 1.67 ± 0.099 | 104 ± 2.31 |
| COc1ccc2c(c1)[C@]13CCN(CC4CC4)[C@H](C2)[C@]12C[C@H](OCc1ccccc1)[C@H](C3)O2 [Compound 102, (4bR,6S,7S,8aS,9R)-7-(benzyloxy)-11-(cyclopropylmethyl)-3-methoxy-5,6,7,8,9,10-hexahydro-9,4b-(epiminoethano)-6,8a-epoxyphenanthrene] | 1520 ± 465 | 10.5 ± 1.26 | 470 ± 69.9 | 42 ± 1.73 | 1920 | 58.3 ± 0.67 |
| CCN[C@H]1C[C@@]2(O)[C@H]3Cc4ccc(O)cc4[C@@]2(CCN3C)C[C@H]1O [Compound 113, (4bR,6R,7S,8aS,9R)-7-(ethylamino)-11-methyl-5,6,7,8,9,10-hexahydro-8aH-9,4b-(epiminoethano)phenanthrene-3,6,8a-triol] | > 20000 | 3.62 ± 3.99 | – | – | – | – |
| CCN[C@H]1C[C@@]2(O)[C@H]3Cc4ccc(O)cc4[C@@]2(CCN3C)C[C@@H]1O [Compound 114, (4bR,6S,7S,8aS,9R)-7-(ethylamino)-11-methyl-5,6,7,8,9,10-hexahydro-8aH-9,4b-(epiminoethano)phenanthrene-3,6,8a-triol] | > 20000 | 9.47 ± 0.74 | – | – | – | – |
| CC(C)CCCC(=O)N[C@H]1C[C@@]2(O)[C@H]3Cc4ccc(O)cc4[C@@]2(CCN3CC2CC2)C[C@@H]1O [Compound 115, N-((4bR,6S,7S,8aS,9R)-11-(cyclopropylmethyl)-3,6,8a-trihydroxy-6,7,8,8a,9,10-hexahydro-5H-9,4b-(epiminoethano)phenanthren-7-yl)-5-methylhexanamide] | > 20000 | -1.04 | – | – | – | – |
| CN[C@H]1C[C@@]2(O)[C@H]3Cc4ccc(O)cc4[C@@]2(CCN3C)C[C@H]1O [Compound 116, (4bR,6R,7S,8aS,9R)-11-methyl-7-(methylamino)-5,6,7,8,9,10-hexahydro-8aH-9,4b-(epiminoethano)phenanthrene-3,6,8a-triol] | 13800 ± 600 | 28.9 ± 1.26 | – | – | – | – |
| CC(C)CCCC(=O)O[C@@H]1C[C@]23CCN(CC4CC4)[C@H](Cc4ccc(O)cc42)[C@]3(O)C[C@@H]1N [Compound 117, (4bR,6R,7S,8aS,9R)-7-amino-11-(cyclopropylmethyl)-3,8a-dihydroxy-6,7,8,8a,9,10-hexahydro-5H-9,4b-(epiminoethano)phenanthren-6-yl 5-methylhexanoate] | 23 ± 3.59 | 14.1 ± 1.2 | – | – | – | – |
| COc1ccc2c(c1)[C@]13CCN(C)[C@H](C2)[C@H]1[C@H](O)C[C@H](OCCO)C3 [Compound 118, (4bS,6R,8R,8aS,9R)-6-(2-hydroxyethoxy)-3-methoxy-11-methyl-6,7,8,8a,9,10-hexahydro-5H-9,4b-(epiminoethano)phenanthren-8-ol] | > 20000 | 31.8 ± 5.76 | – | – | – | – |
| COc1ccc2c(c1)[C@]13CCN(C)[C@H](C2)[C@H]1[C@H](O)C[C@@H](OCCO)C3 [Compound 119, (4bS,6S,8R,8aS,9R)-6-(2-hydroxyethoxy)-3-methoxy-11-methyl-6,7,8,8a,9,10-hexahydro-5H-9,4b-(epiminoethano)phenanthren-8-ol] | > 20000 | 24.2 ± 3.04 | – | – | – | – |
| CN1CC[C@]23C[C@@H](OCCO)C[C@@H](O)[C@@H]2[C@H]1Cc1ccc(O)cc13 [Compound 120, (4bS,6R,8R,8aS,9R)-6-(2-hydroxyethoxy)-11-methyl-6,7,8,8a,9,10-hexahydro-5H-9,4b-(epiminoethano)phenanthrene-3,8-diol] | 436 ± 34.7 | 36.3 ± 1.43 | – | – | – | – |
| CN1CC[C@]23C[C@H](OCCO)C[C@@H](O)[C@@H]2[C@H]1Cc1ccc(O)cc13 [Compound 121, (4bS,6S,8R,8aS,9R)-6-(2-hydroxyethoxy)-11-methyl-6,7,8,8a,9,10-hexahydro-5H-9,4b-(epiminoethano)phenanthrene-3,8-diol] | 1960 ± 876 | 16.6 ± 1.97 | – | – | – | – |

Reference: patent US20200148646A1, “6-S[…] 7-S[…] ANALOGS AND THE USE THEREOF” (Purdue Pharma, L.P., priority 2013, published 2020)
